Experimental data from patent US20240026278A1, “BLOOD CELL LYSING AGENT FOR ISOLATING BACTERIA FROM BLOOD CULTURE” (Becton, Dickinson and Company, priority 2020, published 2024).

Test system: blood cells
Experiment: Lysis of blood cells by the lysing agent
Type: cell-based
Conditions: in lysing buffer
Text: Currently available methods employ saponin to lyse blood cells for isolating bacteria from positive blood cultures. […] It is probable that this identification failure is due to the blood cells not being completely lysed and/or a high content of blood debris. […] In some embodiments, SDA is very water soluble. An advantage of using SDA as the lysing agent for isolating bacteria from positive blood culture is that the MALDI score for challenging species such as Staphylococcus epidermidis can be higher than the cutoff value, leading to correct species identification. Moreover, processing times using SDA versus saponin can be nearly identical.
FIG. 1 depicts exemplary data related to MALDI scores for Staphylococcus epidermidis isolated from positive blood cultures using different lysing agents, namely saponin (SAP), Nonoxynol-9 (Somatic Cell Digestion Agent (SDA)), and a combination thereof. The concentration of each lysing agent was used at 0.52% (w/w). The score for acceptance of identification is greater than or equal to 1.8 for the Sepsityper database and 2.0 for the standard database. […] SDA is generally used as a spermicide by interacting with the lipids in the membranes of the acrosome and the midpiece of the sperm.

With Nonoxynol-9 [SDA] the blood cell lysis was “lyse blood cells very efficiently”.
